Laboratory results reported in publication PMC5668434, “Modulation of telomere protection by the PI3K/AKT pathway” (Nature Communications, 2017).

What was measured:
EGF-R = molecular target: T1, EGF-R (Homo sapiens, UniProt P00533); assay: ProQinase kinase panel; assay type: biochemical; details: read-out: Inh (%) at 1µM, EGF-R
T1 construct: purchased ProQinase
Protocol: (§1) Supplementary Table 1: Kinase selectivity profile of ETP-47037 and ETP-47228 at 1 µM. Selectivity against protein kinases was determined from evaluation of compounds at 1µM in ProQinase’s 24 selected panel that represents the ACG, STE, TKL, TK, CMGC CAMK and CK1 kinase families.

PDGFR-alpha = molecular target: T2, PDGFR-alpha (Homo sapiens, UniProt P16234); assay: ProQinase kinase panel; assay type: biochemical; details: read-out: Inh (%) at 1µM, PDGFR-alpha
T2 construct: purchased ProQinase
Protocol: as §1

KIT = molecular target: T3, KIT (Homo sapiens, UniProt P10721); assay: ProQinase kinase panel; assay type: biochemical; details: read-out: Inh (%) at 1µM, KIT
T3 construct: purchased ProQinase
T3 sequence (P10721 26-976): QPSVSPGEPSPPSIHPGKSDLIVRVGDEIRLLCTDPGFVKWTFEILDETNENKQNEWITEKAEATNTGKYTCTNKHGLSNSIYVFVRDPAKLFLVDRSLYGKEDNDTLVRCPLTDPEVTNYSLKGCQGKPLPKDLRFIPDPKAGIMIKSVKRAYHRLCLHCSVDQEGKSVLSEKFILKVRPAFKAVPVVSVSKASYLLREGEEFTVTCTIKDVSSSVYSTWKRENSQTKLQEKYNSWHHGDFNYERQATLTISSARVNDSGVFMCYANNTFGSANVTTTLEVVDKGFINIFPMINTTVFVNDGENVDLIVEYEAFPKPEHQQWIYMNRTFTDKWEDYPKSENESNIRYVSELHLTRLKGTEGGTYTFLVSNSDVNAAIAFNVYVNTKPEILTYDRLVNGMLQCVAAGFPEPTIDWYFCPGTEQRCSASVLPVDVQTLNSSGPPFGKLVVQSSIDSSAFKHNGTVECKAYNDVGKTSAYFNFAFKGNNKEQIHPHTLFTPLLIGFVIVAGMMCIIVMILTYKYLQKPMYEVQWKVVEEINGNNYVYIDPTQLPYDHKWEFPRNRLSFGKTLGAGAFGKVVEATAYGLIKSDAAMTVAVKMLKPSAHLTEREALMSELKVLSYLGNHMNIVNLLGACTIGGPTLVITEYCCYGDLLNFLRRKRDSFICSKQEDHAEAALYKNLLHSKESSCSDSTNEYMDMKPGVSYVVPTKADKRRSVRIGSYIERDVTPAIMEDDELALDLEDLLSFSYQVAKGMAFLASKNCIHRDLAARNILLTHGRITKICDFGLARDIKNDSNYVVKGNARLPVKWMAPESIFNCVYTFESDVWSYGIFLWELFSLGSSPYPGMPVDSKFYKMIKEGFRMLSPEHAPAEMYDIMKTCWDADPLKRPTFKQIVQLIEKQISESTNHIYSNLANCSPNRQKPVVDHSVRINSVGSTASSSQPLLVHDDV
Protocol: as §1

DYRK1A = molecular target: T4, DYRK1A (Homo sapiens, UniProt Q13627); assay: ProQinase kinase panel; assay type: biochemical; details: read-out: Inh (%) at 1µM, DYRK1A
T4 construct: purchased ProQinase
Protocol: as §1

FGF-R1 = molecular target: T5, FGF-R1 (Homo sapiens, UniProt P11362); assay: ProQinase kinase panel; assay type: biochemical; details: read-out: Inh (%) at 1µM, FGF-R1
T5 construct: purchased ProQinase
T5 sequence (P11362 22-822): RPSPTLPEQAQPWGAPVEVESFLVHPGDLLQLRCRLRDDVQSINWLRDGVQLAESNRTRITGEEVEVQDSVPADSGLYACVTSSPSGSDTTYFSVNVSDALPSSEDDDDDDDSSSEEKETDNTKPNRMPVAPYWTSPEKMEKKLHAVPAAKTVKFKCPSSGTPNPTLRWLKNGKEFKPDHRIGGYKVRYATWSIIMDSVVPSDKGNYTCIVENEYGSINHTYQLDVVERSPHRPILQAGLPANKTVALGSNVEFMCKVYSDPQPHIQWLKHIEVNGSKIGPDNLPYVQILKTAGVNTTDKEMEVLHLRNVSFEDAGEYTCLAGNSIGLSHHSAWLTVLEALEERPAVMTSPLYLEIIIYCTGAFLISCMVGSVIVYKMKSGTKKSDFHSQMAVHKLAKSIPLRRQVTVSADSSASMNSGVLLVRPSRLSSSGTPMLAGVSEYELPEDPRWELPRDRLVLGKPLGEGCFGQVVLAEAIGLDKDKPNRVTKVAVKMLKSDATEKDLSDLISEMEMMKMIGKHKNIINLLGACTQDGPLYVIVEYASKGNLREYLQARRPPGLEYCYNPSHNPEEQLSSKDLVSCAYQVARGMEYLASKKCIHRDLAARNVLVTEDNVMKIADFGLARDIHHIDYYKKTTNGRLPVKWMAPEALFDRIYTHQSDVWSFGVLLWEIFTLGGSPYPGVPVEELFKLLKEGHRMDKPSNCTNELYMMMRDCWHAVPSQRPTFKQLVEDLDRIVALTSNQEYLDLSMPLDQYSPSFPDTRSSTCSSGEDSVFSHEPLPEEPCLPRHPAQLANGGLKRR
Protocol: as §1

MEK1 = molecular target: T6, MEK1 (Homo sapiens, UniProt Q02750); assay: ProQinase kinase panel; assay type: biochemical; details: read-out: Inh (%) at 1µM, MEK1
T6 construct: purchased ProQinase
T6 sequence (Q02750 whole entry): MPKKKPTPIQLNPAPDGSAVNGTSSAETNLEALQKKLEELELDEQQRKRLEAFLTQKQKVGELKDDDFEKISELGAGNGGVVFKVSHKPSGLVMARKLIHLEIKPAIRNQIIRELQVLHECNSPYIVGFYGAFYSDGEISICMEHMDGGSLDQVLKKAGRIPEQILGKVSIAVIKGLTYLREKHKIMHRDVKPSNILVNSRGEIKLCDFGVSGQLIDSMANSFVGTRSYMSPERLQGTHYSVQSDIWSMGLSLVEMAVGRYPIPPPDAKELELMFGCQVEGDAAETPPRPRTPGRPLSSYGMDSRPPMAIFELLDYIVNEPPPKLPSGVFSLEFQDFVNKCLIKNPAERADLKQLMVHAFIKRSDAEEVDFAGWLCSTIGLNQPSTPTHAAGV
Protocol: as §1

CHK2 = molecular target: T7, CHK2 (Homo sapiens, UniProt O96017); assay: ProQinase kinase panel; assay type: biochemical; details: read-out: Inh (%) at 1µM, CHK2
T7 construct: purchased ProQinase
Protocol: as §1

PAK1 = molecular target: T8, PAK1 (Homo sapiens, UniProt Q13153); assay: ProQinase kinase panel; assay type: biochemical; details: read-out: Inh (%) at 1µM, PAK1
T8 construct: purchased ProQinase
T8 sequence (Q13153 whole entry): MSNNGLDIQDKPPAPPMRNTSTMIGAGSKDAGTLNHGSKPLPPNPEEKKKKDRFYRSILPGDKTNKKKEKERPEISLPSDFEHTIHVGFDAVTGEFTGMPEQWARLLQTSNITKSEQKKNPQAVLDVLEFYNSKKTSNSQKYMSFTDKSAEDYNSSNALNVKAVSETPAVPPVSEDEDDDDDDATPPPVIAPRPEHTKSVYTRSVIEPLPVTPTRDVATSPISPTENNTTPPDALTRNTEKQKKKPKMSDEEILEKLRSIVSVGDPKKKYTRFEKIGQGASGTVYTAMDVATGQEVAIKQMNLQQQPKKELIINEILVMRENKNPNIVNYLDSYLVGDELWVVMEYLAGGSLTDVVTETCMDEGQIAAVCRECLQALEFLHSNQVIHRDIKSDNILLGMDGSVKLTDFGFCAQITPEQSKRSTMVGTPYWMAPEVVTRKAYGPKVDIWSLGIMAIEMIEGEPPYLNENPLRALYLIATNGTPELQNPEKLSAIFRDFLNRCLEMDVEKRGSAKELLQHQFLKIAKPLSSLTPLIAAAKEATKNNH
Protocol: as §1

VEGF-R2 = molecular target: T9, VEGF-R2 (Homo sapiens, UniProt P35968); assay: ProQinase kinase panel; assay type: biochemical; details: read-out: Inh (%) at 1µM, VEGF-R2
T9 construct: purchased ProQinase
T9 sequence (P35968 20-1356): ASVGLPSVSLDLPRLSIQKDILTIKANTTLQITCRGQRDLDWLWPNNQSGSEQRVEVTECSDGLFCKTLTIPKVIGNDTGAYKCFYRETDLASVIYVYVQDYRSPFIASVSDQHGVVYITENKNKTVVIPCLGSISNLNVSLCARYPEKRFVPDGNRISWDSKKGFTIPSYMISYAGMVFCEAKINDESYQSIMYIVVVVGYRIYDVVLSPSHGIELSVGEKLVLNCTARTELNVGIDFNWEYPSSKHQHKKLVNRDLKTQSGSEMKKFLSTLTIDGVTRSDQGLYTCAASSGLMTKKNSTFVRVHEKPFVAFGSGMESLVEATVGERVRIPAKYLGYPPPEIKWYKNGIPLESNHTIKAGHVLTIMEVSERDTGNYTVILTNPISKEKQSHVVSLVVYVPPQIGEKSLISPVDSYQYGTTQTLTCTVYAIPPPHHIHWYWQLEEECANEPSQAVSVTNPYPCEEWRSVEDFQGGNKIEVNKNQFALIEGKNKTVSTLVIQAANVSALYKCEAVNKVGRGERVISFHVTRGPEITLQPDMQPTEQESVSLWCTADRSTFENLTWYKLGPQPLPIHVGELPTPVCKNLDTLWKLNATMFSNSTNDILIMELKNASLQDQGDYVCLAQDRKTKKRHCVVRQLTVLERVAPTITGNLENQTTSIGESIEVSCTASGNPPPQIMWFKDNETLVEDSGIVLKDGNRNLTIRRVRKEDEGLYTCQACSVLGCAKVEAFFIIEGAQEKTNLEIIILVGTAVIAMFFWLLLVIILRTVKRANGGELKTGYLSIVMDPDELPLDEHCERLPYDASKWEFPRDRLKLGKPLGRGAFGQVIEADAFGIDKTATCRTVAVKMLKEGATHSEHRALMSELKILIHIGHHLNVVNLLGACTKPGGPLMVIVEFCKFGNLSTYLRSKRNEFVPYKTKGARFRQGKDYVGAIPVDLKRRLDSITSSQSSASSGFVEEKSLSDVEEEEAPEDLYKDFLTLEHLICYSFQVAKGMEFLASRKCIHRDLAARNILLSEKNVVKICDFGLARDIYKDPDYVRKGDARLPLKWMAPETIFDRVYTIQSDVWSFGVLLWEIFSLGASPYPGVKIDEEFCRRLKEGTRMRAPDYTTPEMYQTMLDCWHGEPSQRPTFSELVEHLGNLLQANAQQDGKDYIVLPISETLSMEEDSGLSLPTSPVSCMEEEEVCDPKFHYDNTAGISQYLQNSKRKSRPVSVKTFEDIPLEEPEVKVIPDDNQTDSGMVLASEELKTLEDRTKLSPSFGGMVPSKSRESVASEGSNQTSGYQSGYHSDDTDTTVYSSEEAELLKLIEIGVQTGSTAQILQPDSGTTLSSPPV
Protocol: as §1

JAK2 = molecular target: T10, JAK2 (Homo sapiens, UniProt O60674); assay: ProQinase kinase panel; assay type: biochemical; details: read-out: Inh (%) at 1µM, JAK2
T10 construct: purchased ProQinase
Protocol: as §1

SRC = molecular target: T11, SRC (Homo sapiens, UniProt P12931); assay: ProQinase kinase panel; assay type: biochemical; details: read-out: Inh (%) at 1µM, SRC
T11 construct: purchased ProQinase
T11 sequence (P12931 whole entry): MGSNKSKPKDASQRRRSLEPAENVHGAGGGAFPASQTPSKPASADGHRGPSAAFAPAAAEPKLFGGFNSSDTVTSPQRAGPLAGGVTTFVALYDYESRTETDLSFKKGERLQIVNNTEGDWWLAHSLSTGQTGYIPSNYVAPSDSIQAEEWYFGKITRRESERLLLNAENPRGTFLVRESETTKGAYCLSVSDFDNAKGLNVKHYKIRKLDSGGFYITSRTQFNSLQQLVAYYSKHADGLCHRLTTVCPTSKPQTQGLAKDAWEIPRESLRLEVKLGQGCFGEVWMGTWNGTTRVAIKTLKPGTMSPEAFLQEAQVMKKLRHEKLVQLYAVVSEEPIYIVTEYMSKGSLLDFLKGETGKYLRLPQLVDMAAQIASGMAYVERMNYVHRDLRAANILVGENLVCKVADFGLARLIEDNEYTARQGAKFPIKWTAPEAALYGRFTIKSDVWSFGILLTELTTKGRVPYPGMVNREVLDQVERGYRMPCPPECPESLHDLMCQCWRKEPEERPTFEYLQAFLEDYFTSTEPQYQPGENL
Protocol: as §1

B-RAF-V600E = molecular target: T12, B-RAF-V600E (Homo sapiens, UniProt P15056, V600E); assay: ProQinase kinase panel; assay type: biochemical; details: read-out: Inh (%) at 1µM, B-RAF-V600E
T12 construct: purchased ProQinase
Protocol: as §1

CHK1 = molecular target: T13, CHK1 (Homo sapiens, UniProt O14757); assay: ProQinase kinase panel; assay type: biochemical; details: read-out: Inh (%) at 1µM, CHK1
T13 construct: purchased ProQinase
Protocol: as §1

IGF1-R = molecular target: T14, IGF1-R (Homo sapiens, UniProt P08069); assay: ProQinase kinase panel; assay type: biochemical; details: read-out: Inh (%) at 1µM, IGF1-R
T14 construct: purchased ProQinase
Protocol: as §1

CK1-alpha1 = molecular target: T15, CK1-alpha1 (Homo sapiens, UniProt P48729); assay: ProQinase kinase panel; assay type: biochemical; details: read-out: Inh (%) at 1µM, CK1-alpha1
T15 construct: purchased ProQinase
Protocol: as §1

PDK1 = molecular target: T16, PDK1 (Homo sapiens, UniProt O15530); assay: ProQinase kinase panel; assay type: biochemical; details: read-out: Inh (%) at 1µM, PDK1
T16 construct: purchased ProQinase
Protocol: as §1

SGK1 = molecular target: T17, SGK1 (Homo sapiens, UniProt O00141); assay: ProQinase kinase panel; assay type: biochemical; details: read-out: Inh (%) at 1µM, SGK1
T17 construct: purchased ProQinase
T17 sequence (O00141 whole entry): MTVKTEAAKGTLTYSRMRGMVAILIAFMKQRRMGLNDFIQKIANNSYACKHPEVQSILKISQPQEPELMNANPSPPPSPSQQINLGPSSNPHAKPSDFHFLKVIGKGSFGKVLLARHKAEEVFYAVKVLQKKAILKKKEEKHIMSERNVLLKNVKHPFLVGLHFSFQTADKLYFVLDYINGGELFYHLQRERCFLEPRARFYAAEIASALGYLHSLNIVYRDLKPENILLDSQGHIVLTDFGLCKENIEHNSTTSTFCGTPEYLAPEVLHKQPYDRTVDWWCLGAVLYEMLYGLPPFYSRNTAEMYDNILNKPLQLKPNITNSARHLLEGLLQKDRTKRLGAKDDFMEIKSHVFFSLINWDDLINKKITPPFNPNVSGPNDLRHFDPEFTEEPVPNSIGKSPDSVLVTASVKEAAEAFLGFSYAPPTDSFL
Protocol: as §1

CDK8-CycC = molecular target: T18, CDK8-CycC (Homo sapiens, UniProt P49336); assay: ProQinase kinase panel; assay type: biochemical; details: read-out: Inh (%) at 1µM, CDK8-CycC
T18 construct: purchased ProQinase
Protocol: as §1

[1] = test system: TRF1 foci in CHA-9.3 mouse lung tumor cell line; assay: TRF1 foci immunofluorescence in CHA-9.3 cells; assay type: cell-based; details: for Inhibition of TRF1 foci (in words): 10 μM (GSK-2126458 1.0 μM), 24 h, CHA-9.3; for TRF1 levels as compared to bortezomib/DMSO-treated control cells: 10 μM plus bortezomib 50 nM, CHA 9-3
mTOR (FRAP1) = molecular target: T19, mTOR (FRAP1) (Homo sapiens, UniProt P42345); assay: mTOR biochemical assay (LanthaScreen)
T19 construct: purchased ThermoFisher PV4753

PI3K-δ (p110δ/p85α) = molecular target: T20, PI3K-δ (p110δ/p85α) (Homo sapiens, UniProt O00329); assay: PI3K isoforms biochemical assay (HTRF), PI3K-δ; details: read-out: PI3Kδ IC50
T20 construct: purchased Invitrogen PV 5274
Protocol: (§2) PI3Kα (p110α/p85α), PI3K-δ (p110δ/p85α), and PI3K-γ (p110γ) were purchased from Invitrogen (PV4789, PV 5274, and PV4787, respectively). PI3K-β (p110β/p85α) was obtained from Millipore (#14-603). The kinase activity was measured with the commercial PI3-kinase (human) HTRF™ assay available from Millipore (#33-017), following the manufacturer recommendations. The final enzyme concentration in the assay were 100 pM for PI3K-α and PI3K-δ, 500 pM for PI3K-β, and 4 nM for PI3K-γ. […] The enzyme was preincubated with the inhibitor and with 10 μM of PIP2 for 5 min. The enzymatic reaction was started by addition of ATP at 50 times the Km. The incubation was kept at 37 °C for 60 min. Stop solution and detection mix were added sequentially to the wells and plates were incubated 3 h in the dark at 25 °C. HTRF counts were measured in an EnVision reader (Perkin Elmer) using the recommended settings. Values were normalized against the control activity included for the enzyme (100% PI3 kinase activity, without compound). These values were plotted against the inhibitor concentration and were fit to a sigmoid dose-response curve by using Activity base software from IDBS.

PI3K-β (p110β/p85α) = molecular target: T21, PI3K-β (p110β/p85α) (Homo sapiens, UniProt P42338); assay: PI3K isoforms biochemical assay (HTRF), PI3K-β; details: read-out: PI3Kβ IC50
T21 construct: purchased Millipore #14-603
Protocol: as §2

`Cc1cnc2c(N3CCOCC3)nc(-c3ccc(NC(=O)Nc4ccc(C(=O)N5CCN(C)CC5)cc4)cc3)cn12` [ETP-47228] showed an inhibition at 1 µM (EGF-R) of 0.5%, an inhibition at 1 µM (PDGFR-alpha) of 1% and an inhibition at 1 µM (KIT) of 6.5%. For the same compound, the inhibition at 1 µM (DYRK1A) was 4%, the inhibition at 1 µM (FGF-R1) was -3.5% and the inhibition at 1 µM (MEK1) was -3%. It also gave an inhibition at 1 µM (CHK2) of 3%, an inhibition at 1 µM (PAK1) of 1% and an inhibition at 1 µM (VEGF-R2) of -3%. The inhibition at 1 µM (JAK2) was 4%, the inhibition at 1 µM (SRC) was 5% and the inhibition at 1 µM (B-RAF-V600E) was 11.5%. The inhibition at 1 µM (CHK1) was -11.5%, the inhibition at 1 µM (IGF1-R) was -19% and the inhibition at 1 µM (CK1-alpha1) was 2%. For the same compound, the inhibition at 1 µM (PDK1) was -9%, the inhibition at 1 µM (SGK1) was 0.5% and the inhibition at 1 µM (CDK8-CycC) was 1%. The “Inhibition of TRF1 foci (in words)” value [1] was “efficient inhibition of TRF1 foci”, the “TRF1 levels as compared to bortezomib/DMSO-treated control cells” value [1] was “significantly lower” and the IC50 (mTOR (FRAP1); internal data) was 443 nM.
`CS(=O)(=O)N1CCN(Cc2cc3c(N4CCOCC4)nc(-c4cnc(N)nc4)cn3n2)CC1` [ETP-47037] gave an inhibition at 1 µM (EGF-R) of 22.5%, an inhibition at 1 µM (PDGFR-alpha) of 4% and an inhibition at 1 µM (KIT) of 9%. It also gave an inhibition at 1 µM (DYRK1A) of -1%, an inhibition at 1 µM (FGF-R1) of 6.5% and an inhibition at 1 µM (MEK1) of -15%. It also gave an inhibition at 1 µM (CHK2) of 0.5%, an inhibition at 1 µM (PAK1) of -3.5% and an inhibition at 1 µM (VEGF-R2) of 21.5%. The inhibition at 1 µM (JAK2) was 2%, the inhibition at 1 µM (SRC) was 26% and the inhibition at 1 µM (B-RAF-V600E) was 6.5%. For the same compound, the inhibition at 1 µM (CHK1) was 15.5%, the inhibition at 1 µM (IGF1-R) was 2% and the inhibition at 1 µM (CK1-alpha1) was -6%. For the same compound, the inhibition at 1 µM (PDK1) was 7%, the inhibition at 1 µM (SGK1) was 0.5% and the inhibition at 1 µM (CDK8-CycC) was -4.5%. For the same compound, the “Inhibition of TRF1 foci (in words)” value [1] was “efficient inhibition of TRF1 foci”, the “TRF1 levels as compared to bortezomib/DMSO-treated control cells” value [1] was “significantly lower” and the IC50 (PI3K-δ (p110δ/p85α)) was 7.13 nM. The IC50 (PI3K-β (p110β/p85α)) was 49.2 nM and the IC50 (mTOR (FRAP1); as given in the text) was 1700 nM.
